Experimental data reported in patent publication US10160762B2, “6-alkyl dihydropyrazolopyrimidinone compounds as PDE2 inhibitors” (Merck Sharp & Dohme Corp., priority 2015, dated 2018).
Like-named read-outs stand apart in the source and are kept apart here.

Experiments:
Rhesus PDE2A3 = molecular target: T1, Rhesus PDE2A3 (Macaca mulatta, UniProt B3VTJ2); assay: PDE2 fluorescence polarization (IMAP FP) inhibition assay, rhesus PDE2A3; type: biochemical, rhesus macaque
T1 construct: made in house; host or cells: AD293 cells, transient transfection; supernatant of sonicated lysate
T1 sequence (B3VTJ2 1-941): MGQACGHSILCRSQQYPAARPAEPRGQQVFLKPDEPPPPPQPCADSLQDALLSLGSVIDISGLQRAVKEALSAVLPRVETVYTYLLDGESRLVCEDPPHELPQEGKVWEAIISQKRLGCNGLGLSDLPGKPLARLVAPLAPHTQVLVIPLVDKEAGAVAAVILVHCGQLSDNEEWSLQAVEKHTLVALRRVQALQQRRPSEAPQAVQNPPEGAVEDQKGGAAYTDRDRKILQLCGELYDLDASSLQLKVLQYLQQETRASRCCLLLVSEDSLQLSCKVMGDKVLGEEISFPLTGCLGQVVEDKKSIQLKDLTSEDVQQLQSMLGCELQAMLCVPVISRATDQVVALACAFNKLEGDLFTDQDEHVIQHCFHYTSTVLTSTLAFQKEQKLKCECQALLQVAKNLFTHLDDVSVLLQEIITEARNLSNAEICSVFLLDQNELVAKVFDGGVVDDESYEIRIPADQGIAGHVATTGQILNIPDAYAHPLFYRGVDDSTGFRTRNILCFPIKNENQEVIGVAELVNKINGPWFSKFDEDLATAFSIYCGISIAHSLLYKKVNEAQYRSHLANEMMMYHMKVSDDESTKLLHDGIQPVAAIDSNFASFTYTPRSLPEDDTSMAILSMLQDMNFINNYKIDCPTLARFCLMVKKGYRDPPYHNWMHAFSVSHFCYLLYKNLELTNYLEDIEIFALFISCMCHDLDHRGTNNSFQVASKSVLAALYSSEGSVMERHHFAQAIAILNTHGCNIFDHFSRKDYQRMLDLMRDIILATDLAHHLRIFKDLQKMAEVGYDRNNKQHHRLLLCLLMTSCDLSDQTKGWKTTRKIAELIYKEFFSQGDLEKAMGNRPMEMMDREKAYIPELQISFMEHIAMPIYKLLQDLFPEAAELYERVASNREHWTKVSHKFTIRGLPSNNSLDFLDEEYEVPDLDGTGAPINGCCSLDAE
Procedure: The activity of the compounds in accordance with the present invention as PDE2 inhibitors may be readily determined using a fluorescence polarization (FP) methodology (Huang, W., et al., J. Biomol Screen, 2002, 7: 215).
The PDE2 inhibitory activity of the compounds of the present invention was determined in accordance with the following experimental method. Rhesus PDE2A3 was amplified from rhesus macaque brain cDNA (Biochain Institute, Hayward, Calif.) using primers based on human PDE2A sequence (accession NM_002599.3) where the forward primer containing a Kozak consensus was 5′-[…]-3′ and the reverse primer was 5′-[…]-3′. Amplification with Easy-A High-Fidelity PCR cloning enzyme (Stratagene, La Jolla, Calif.) was 95° C. for 2 minutes followed by thirty three cycles of 95° C. for 40 seconds, 52° C. for 30 seconds, and 72° C. for 2 minutes 48 seconds. Final extension was 72° C. for 7 minutes. The PCR product was TA cloned into pcDNA3.3-TOPO (Invitrogen, Carlsbad, Calif.) according to standard protocol. A consensus sequence was developed from multiple clones and then deposited into GenBank (EU812167). AD293 cells (Stratagene, La Jolla, Calif.) with 70-80% confluency were transiently transfected with rhesus PDE2A3/pcDNA3.3-TOPO using Lipofectamine 2000 according to manufacturer specifications (Invitrogen, Carlsbad, Calif.). Cells were harvested 48 hours post-transfection and lysed by sonication (setting 3, 10×5 sec pulses) in a buffer containing 20 mM HEPES pH 7.4, 1 mM EDTA and Complete Protease Inhibitor Cocktail Tablets (Roche, Indianapolis, Ind.). Lysate was collected by centrifugation at 75,000×g for 20 minutes at 4° C. and supernatant utilized for evaluation of PDE2 activity. The fluorescence polarization assay for cyclic nucleotide phosphodiesterases was performed using an IMAP® FP kit supplied by Molecular Devices, Sunnyvale, Calif. (product #R8139). […] Assays were performed at room temperature in 384-well microtiter plates with an incubation volume of 20.2 μL. Solutions of test compounds were prepared in DMSO and serially diluted with DMSO to yield 8 μL of each of 10 solutions differing by 3-fold in concentration, at 32 serial dilutions per plate. […] 0% of inhibition is determined by using DMSO (1% final concentrations).
A Labcyte Echo 555 (Labcyte, Sunnyvale, Calif.) is used to dispense 200 nL from each well of the titration plate to the 384 well assay plate. Ten microliters of a solution of enzyme (1/2000 final dilution from aliquots; sufficient to produce 20% substrate conversion) was added to the assay plate. Next 10 uL of a separate solution of the substrate FAM-labeled cAMP (50 nM final concentration product # R7506 from Molecular Devices) and the activator cGMP (1 uM final concentration), prepared in the assay buffer (10 mM Tris HCl, pH 7.2, 10 mM MgCl2, 0.05% NaN3 0.01% Tween-20, and 1 mM DTT) was added to the assay plate and shaken to mix. The reaction is allowed to proceed at room temperature for 60 minutes. A binding solution is then made from the kit components, comprised of 80% Solution A, 20% Solution B and binding reagent at a volume of 1/600 the total binding solution. The enzymatic reaction is stopped by addition of 60 μL of the binding solution to each well of the assay plates and the plates are sealed and shaken for 30 seconds. The plate was incubated at room temperature for at least one hour prior to determining the fluorescence polarization (FP). The parallel and perpendicular fluorescence of each well of the plate was measured using a Tecan Genios Pro plate reader (Tecan, Switzerland) or Perkin Elmer EnVision™ plate reader (Waltham, Mass.). Fluorescence polarization (mP) was calculated from the parallel (S) and perpendicular (P) fluorescence of each sample well and the analogous values for the median control well, containing only substrate (So and Po), using the following equation: Polarization(mP)=1000*(S/So−P/Po)/(S/So+P/Po).

[1] = reported in Brandon et al., Annual Reports in Medicinal Chemistry 42, 2007; cited from earlier work
other PDE isoforms = conditions: reported in Brandon et al., Annual Reports in Medicinal Chemistry 42, 2007; cited from earlier work
[2] = Lab B, read-out: Rhesus PDE2 Ki (nM) Lab B

SMILES	Ki (Rhesus PDE2A3; [2]) [nM]	other results
Cc1nc2c(c(CS(C)(=O)=O)nn2C(C)c2ccc(C(F)(F)F)cc2)c(=O)[nH]1 (single isomer, unassigned) [Example 272]	1210	–
Cc1nc2c(c(CS(C)(=O)=O)nn2C(C)c2ccc(C(F)(F)F)cc2)c(=O)[nH]1 (single isomer, unassigned) [Example 273]	757	–
Cc1nc2c(c(CO)nn2C(C)c2ccc(S(F)(F)(F)(F)F)cc2)c(=O)[nH]1 (single isomer, unassigned) [Example 76]	330	–
COc1ccc(Cc2nn3c([C@@H](CCCc4ccccc4)[C@@H](C)O)nc(C)c3c(=O)[nH]2)cc1OC [BAY 60-7550, Bay 60-7550]	–	brain penetration [1]: limited; potency at other PDE isoforms (other PDE isoforms): significant potency
Cc1nc2c(c(C)nn2C(C)C(O)c2ccc(C(F)(F)F)cc2)c(=O)[nH]1 (stereo not shown) [Example 332, 1-(1-Hydroxy-1-(4-(trifluoromethyl)phenyl)propan-2-yl)-3,6-dimethyl-1H-pyrazolo[3,4-d]pyrimidin-4(5H)-one]	8880	–
Cc1nn(C(C)c2ccc(C(F)(F)F)cc2)c2nc(C3CCOCC3)[nH]c(=O)c12 (stereo not shown) [Example 55, 3-Methyl-6-(tetrahydro-2H-pyran-4-yl)-1-{1-[4-(trifluoromethyl)phenyl]ethyl}-1,5-dihydro-4H-pyrazolo[3,4-d]pyrimidin-4-one]	–	Ki (Rhesus PDE2A3; Lab A, read-out: Rhesus PDE2 Ki (nM) Lab A): 421 nM
